Five compounds from patent publication US9029404B2, “Apoptosis-inducing agents for the treatment of cancer and immune and autoimmune diseases” (AbbVie Inc., priority 2008, dated 2015) can be followed below.

Sequence of GST-Bcl-2 (P10415 whole entry): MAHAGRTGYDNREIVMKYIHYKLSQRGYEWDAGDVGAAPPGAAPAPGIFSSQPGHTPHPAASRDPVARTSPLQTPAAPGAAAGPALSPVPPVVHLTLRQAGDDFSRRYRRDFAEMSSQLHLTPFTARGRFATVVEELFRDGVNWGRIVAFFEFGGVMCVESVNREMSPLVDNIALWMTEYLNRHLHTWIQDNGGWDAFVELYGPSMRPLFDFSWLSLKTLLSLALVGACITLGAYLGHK

This assay addresses GST-Bcl-2 (Homo sapiens, UniProt P10415). In words: Time Resolved-Fluorescence Resonance Energy Transfer (TR-FRET) Bcl-2 binding assay. The following applies: competition with F-Bak peptide probe (100 nM); GST-Bcl-2 1 nM; Tb-anti-GST 1 nM; 3 hours at room temperature; Wang's equation. Put shortly:
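Ki values derived from TR-FRET displacement of F-Bak peptide from GST-Bcl-2, detected with Tb-labelled anti-GST antibody (ex 340, em 520/495 nm). Compound dilution series started at 50 μM (2× starting concentration); room-temperature incubation 3 hours.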
Turning to `CC1(C)CCC(CN2CCN(c3ccc(C(=O)NS(=O)(=O)c4ccc(NC[C@H]5CN(C6COC6)CCO5)c([N+](=O)[O-])c4)c(Oc4cnc(N)c(Cl)c4)c3)CC2)=C(c2ccc(Cl)cc2)C1` [Example 448, 2-[(6-amino-5-chloropyridin-3-yl)oxy]-4-(4-{[2-(4-chlorophenyl)-4,4-dimethylcyclohex-1-en-1-yl]methyl}piperazin-1-yl)-N-{[3-nitro-4-({[(2S)-4-(oxetan-3-yl)morpholin-2-yl]methyl}amino)phenyl]sulfonyl}benzamide], the Ki is below 10 pM.
`CC1(C)CCC(CN2CCN(c3ccc(C(=O)NS(=O)(=O)c4cnc(NCC5CCOCC5)c([N+](=O)[O-])c4)c(Oc4cnc(N)c(Cl)c4)c3)CC2)=C(c2ccc(Cl)cc2)C1` [Example 449, 2-[(6-amino-5-chloropyridin-3-yl)oxy]-4-(4-{[2-(4-chlorophenyl)-4,4-dimethylcyclohex-1-en-1-yl]methyl}piperazin-1-yl)-N-({5-nitro-6-[(tetrahydro-2H-pyran-4-ylmethyl)amino]pyridin-3-yl}sulfonyl)benzamide] registered a Ki below 10 pM.
The same measure for `CC1(C)CCC(CN2CCN(c3ccc(C(=O)NS(=O)(=O)c4cnc(OC[C@H]5CC[C@H](O)CC5)c(Cl)c4)c(Oc4ccc(F)c5[nH]ncc45)c3)CC2)=C(c2ccc(Cl)cc2)C1` [Example 419, N-({5-chloro-6-[(trans-4-hydroxycyclohexyl)methoxy]pyridin-3-yl}sulfonyl)-4-(4-{[2-(4-chlorophenyl)-4,4-dimethylcyclohex-1-en-1-yl]methyl}piperazin-1-yl)-2-[(7-fluoro-1H-indazol-4-yl)oxy]benzamide]: 12 pM; for `CC1(C)CCC(CN2CCN(c3ccc(C(=O)NS(=O)(=O)c4cnc(OCC5(F)CCOCC5)c(Cl)c4)c(Oc4ccc(F)c5[nH]ncc45)c3)CC2)=C(c2ccc(Cl)cc2)C1` [Example 420, N-({5-chloro-6-[(4-fluorotetrahydro-2H-pyran-4-yl)methoxy]pyridin-3-yl}sulfonyl)-4-(4-{[2-(4-chlorophenyl)-4,4-dimethylcyclohex-1-en-1-yl]methyl}piperazin-1-yl)-2-[(7-fluoro-1H-indazol-4-yl)oxy]benzamide]: below 10 pM.
Next, `CC1(C)CCC(CN2CCN(c3ccc(C(=O)NS(=O)(=O)c4ccc(NC[C@H]5CC[C@H](N6CCOCC6)CC5)c([N+](=O)[O-])c4)c(Oc4cnc(N)c(Cl)c4)c3)CC2)=C(c2ccc(Cl)cc2)C1` [Example 451, 2-[(6-amino-5-chloropyridin-3-yl)oxy]-4-(4-{[2-(4-chlorophenyl)-4,4-dimethylcyclohex-1-en-1-yl]methyl}piperazin-1-yl)-N-{[4-({[trans-4-(morpholin-4-yl)cyclohexyl]methyl}amino)-3-nitrophenyl]sulfonyl}benzamide]: below 10 pM.
